Results reported in paper PMC11289669, “BAR502/fibrate conjugates: synthesis, biological evaluation and metabolic profile” (Frontiers in Chemistry, 2024).
Values joined by “and” are separate entries in the source; they are usually repeats but may differ in a detail not shown here. Equal values may be shown once.

Assays:
GPBAR1 = target: T1, GPBAR1 (Homo sapiens, UniProt Q8TDU6); test: GPBAR1 transactivation (CRE-luciferase reporter) assay in HEK-293T cells; type: cell-based; conditions: for Emax: 18 h, read-out: GPBAR1 efficacy (% vs. TLCA); for Emax / GPBAR1 efficacy (% vs. TLCA): transactivation on HEK-293T cells, TLCA 10 μM = 100%; for EC50: transactivation assay, HEK-293T cells
T1 construct: expressed in transfected cells; host or cells: HEK-293T
T1 sequence (Q8TDU6 1-330): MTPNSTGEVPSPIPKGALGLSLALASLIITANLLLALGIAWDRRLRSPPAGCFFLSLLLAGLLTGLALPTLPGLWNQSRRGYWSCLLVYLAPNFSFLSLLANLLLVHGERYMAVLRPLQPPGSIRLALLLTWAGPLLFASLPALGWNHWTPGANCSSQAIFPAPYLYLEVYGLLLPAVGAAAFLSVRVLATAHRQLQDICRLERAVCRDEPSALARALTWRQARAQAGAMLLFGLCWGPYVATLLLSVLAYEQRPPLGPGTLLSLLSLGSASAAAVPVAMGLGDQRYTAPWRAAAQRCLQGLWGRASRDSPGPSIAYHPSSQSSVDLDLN
Description: (§1) HepG2 and HEK-293T cells were cultured at 37 °C in minimal essential medium (MEM) and Dulbecco’s Modified Eagle Medium (DMEM) respectively, supplemented with 10% fetal bovine serum, 1% L-glutamine, 100 U/mL penicillin, and 100 μg/mL streptomycin. To investigate FXR-mediated transactivation, the HepG2 cells were transfected with 200 ng of the reporter vector p (hsp27)TK-Luc containing the FXR response element IR1 cloned from the promoter of heat shock protein 27 (hsp27), plus 100 ng pSG5-FXR, 100 ng pSG5-RXR, and 100 ng pGL4.70 Renilla. To evaluate GPBAR1 mediated transactivation, HEK-293T cells were transfected with 200 ng of human pGL4.29 (Promega), a reporter vector containing a cAMP response element (CRE) that drives the transcription of the luciferase reporter gene luc2P, with 100 ng of pCMVSPORT6-human GPBAR1, and with 100 ng of pGL4.70. At 24 h post-transfection, cells were stimulated 18 h with 10 μM TLCA (taurolithocholic acid a GPBAR1 agonist) or CDCA (FXR agonist) and compounds. To calculate the EC50 on FXR and GPBAR1, dose-response curves were performed in HEK-293T cells transfected as described above and then treated with increasing concentrations of compounds (from 0.1 to 50 µM). After treatments, cells were lysed in 100 μL of lysis buffer (25 mM Tris-phosphate, pH 7.8; 2 mM DTT; 10% glycerol; 1% Triton X-100), and 10 μL of cellular lysate was assayed for luciferase activity using the Firfly &Renilla Luciferase assay kit (Biotium). Luminescence was measured using Glomax 20/20 luminometer (Promega). Luciferase activities were assayed and normalized with Renilla activities.

PPARα = target: T2, PPARα (Homo sapiens, UniProt Q07869); test: AlphaScreen coactivator (SRC-1) recruitment assay on PPARα; type: biochemical; conditions: AlphaScreen SRC-1 recruitment; compounds at 50 µM (footnote); fenofibrate = 100%
T2 construct: 20 nM PPARα LBD GST fused (Thermo Scientific); purchased Thermo Scientific
T2 sequence (Q07869 239-466 limits assumed): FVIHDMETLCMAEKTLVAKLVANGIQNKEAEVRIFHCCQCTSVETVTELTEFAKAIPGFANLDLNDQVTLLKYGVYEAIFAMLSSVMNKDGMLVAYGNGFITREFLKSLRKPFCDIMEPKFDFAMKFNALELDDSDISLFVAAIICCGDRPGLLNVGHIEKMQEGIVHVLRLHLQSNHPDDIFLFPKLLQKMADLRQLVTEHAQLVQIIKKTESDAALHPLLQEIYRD
Description: Compounds’ ability to mediate cofactor recruitment was evaluated by employing AlphaScreen GST Detection Kit (PerkinElmer). Particularly, FXR agonism was evaluated employing 10 nM FXR-LBD GST-fused (Thermo Scientific) and 30 nM of biotinylated SRC1 peptide ([…]) in the presence of 20 μg/mL donor and acceptor beads and in buffer containing 50 mM Tris-HCl (pH7.4), 20 mM KCl, 1 mM DTT, and 0.1% BSA. For PPARα assay, a buffer containing 50 mM MOPS, 50 mM NaF, 0.05 mM CHAPS, and 0.05% BSA (pH = 7.4) was used, and 20 nM PPARα LBD GST fused (Thermo Scientific) and 60 nM of biotinylated SRC1 peptide were employed. Both acceptor and donor beads were added to reach 20 μg/mL final concentration. Incubations were performed in a final volume of 25 μL employing 384 wells Optiplate and Alpha signal was measured with Envision 2,105 (Perkin Elmer) multimode plate reader. […]

FXR [1] = target: T3, FXR (Homo sapiens, UniProt Q96RI1); test: AlphaScreen coactivator (SRC-1) recruitment assay on FXR; type: biochemical; conditions: for FXR efficacy (% vs. CDCA): AlphaScreen SRC-1 recruitment, compounds at 10 μM, CDCA = 100%
T3 sequence (Q96RI1 262-486 limits assumed): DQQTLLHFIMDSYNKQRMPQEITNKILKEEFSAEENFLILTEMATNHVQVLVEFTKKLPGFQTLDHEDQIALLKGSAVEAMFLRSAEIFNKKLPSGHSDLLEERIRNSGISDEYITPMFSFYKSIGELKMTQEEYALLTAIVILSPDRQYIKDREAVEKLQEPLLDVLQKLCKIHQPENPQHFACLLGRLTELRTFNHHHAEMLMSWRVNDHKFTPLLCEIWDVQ
Description: Compounds’ ability to mediate cofactor recruitment was evaluated by employing AlphaScreen GST Detection Kit (PerkinElmer). Particularly, FXR agonism was evaluated employing 10 nM FXR-LBD GST-fused (Thermo Scientific) and 30 nM of biotinylated SRC1 peptide ([…]) in the presence of 20 μg/mL donor and acceptor beads and in buffer containing 50 mM Tris-HCl (pH7.4), 20 mM KCl, 1 mM DTT, and 0.1% BSA. For PPARα assay, a buffer containing 50 mM MOPS, 50 mM NaF, 0.05 mM CHAPS, and 0.05% BSA (pH = 7.4) was used, and 20 nM PPARα LBD GST fused (Thermo Scientific) and 60 nM of biotinylated SRC1 peptide were employed. Both acceptor and donor beads were added to reach 20 μg/mL final concentration. Incubations were performed in a final volume of 25 μL employing 384 wells Optiplate and Alpha signal was measured with Envision 2,105 (Perkin Elmer) multimode plate reader. For efficacy, compounds were tested at 10 μM for FXR and 50 μM for PPARα.

FXR [2] = target: T4, FXR (Homo sapiens, UniProt Q96RI1); test: FXR transactivation (luciferase reporter) assay in HepG2 cells; type: cell-based; conditions: for EC50: HepG2 cells
T4 construct: expressed in transfected cells; host or cells: HepG2 (the text says EC50 dose-response curves were run in HEK-293T)
T4 sequence (Q96RI1 1-486): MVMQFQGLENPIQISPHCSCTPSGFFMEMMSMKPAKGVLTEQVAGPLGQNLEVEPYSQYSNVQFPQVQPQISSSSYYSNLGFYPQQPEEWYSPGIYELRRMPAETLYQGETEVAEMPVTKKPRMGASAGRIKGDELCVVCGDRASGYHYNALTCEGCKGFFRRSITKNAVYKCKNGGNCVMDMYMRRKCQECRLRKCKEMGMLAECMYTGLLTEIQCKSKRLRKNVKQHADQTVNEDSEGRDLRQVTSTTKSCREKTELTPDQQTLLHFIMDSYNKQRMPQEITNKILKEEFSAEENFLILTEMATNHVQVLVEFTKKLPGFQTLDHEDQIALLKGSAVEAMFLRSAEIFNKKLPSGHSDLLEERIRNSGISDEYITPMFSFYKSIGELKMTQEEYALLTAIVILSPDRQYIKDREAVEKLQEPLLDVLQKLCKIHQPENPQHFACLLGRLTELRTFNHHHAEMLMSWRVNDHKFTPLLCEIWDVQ
T4 sequence (P19793 1-462 partner): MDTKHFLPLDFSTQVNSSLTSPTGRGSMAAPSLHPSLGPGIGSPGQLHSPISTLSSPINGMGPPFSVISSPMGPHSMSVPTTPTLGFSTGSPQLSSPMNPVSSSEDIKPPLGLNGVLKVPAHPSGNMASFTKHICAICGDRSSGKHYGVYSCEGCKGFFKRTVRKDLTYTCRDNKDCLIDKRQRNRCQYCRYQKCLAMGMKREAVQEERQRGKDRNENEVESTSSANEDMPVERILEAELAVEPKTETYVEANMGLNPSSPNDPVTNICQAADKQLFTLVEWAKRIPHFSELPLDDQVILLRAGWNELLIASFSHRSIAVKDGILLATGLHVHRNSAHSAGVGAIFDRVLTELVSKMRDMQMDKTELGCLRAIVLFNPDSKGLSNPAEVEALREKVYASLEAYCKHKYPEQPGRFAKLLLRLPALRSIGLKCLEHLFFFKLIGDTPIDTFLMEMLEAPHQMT
Description: as §1

| SMILES | Emax (GPBAR1) [%] | PPARα efficacy (% vs. fenofibrate) (PPARα) [%] | FXR efficacy (% vs. CDCA) (FXR [1]) | EC50 (FXR [1]; AlphaScreen coactivator recruitment, FXR with SRC-1) [µM] | EC50 (FXR [2]) [µM] | EC50 (GPBAR1) [µM] | GPBAR1 efficacy (% vs. TLCA) (GPBAR1) [%] | FXR efficacy vs. CDCA (transactivation) (FXR [2]) [%] |
| --- | --- | --- | --- | --- | --- | --- | --- | --- |
| CC[C@@H]1C2C[C@H](OC(=O)C(C)(C)Oc3ccc(Cl)cc3)CC[C@]2(C)C2CC[C@@]3(C)C(CC[C@@H]3[C@H](C)CCO)C2[C@@H]1O (stereo partly drawn) [Compound 2] | 46 ± 16 |  |  |  |  |  |  |  |
| CC[C@@H]1C2C[C@H](OC(=O)C(C)(C)Oc3ccc(C(=O)c4ccc(Cl)cc4)cc3)CC[C@]2(C)C2CC[C@@]3(C)C(CC[C@@H]3[C@H](C)CCO)C2[C@@H]1O (stereo partly drawn) [Compound 5] | 40 ± 0.7 | 6.6 ± 1.9 |  |  |  |  |  |  |
| CC[C@@H]1C2C[C@H](O)CC[C@]2(C)C2CC[C@@]3(C)C(CC[C@@H]3[C@H](C)CCOC(=O)C(C)(C)Oc3ccc(C(=O)c4ccc(Cl)cc4)cc3)C2[C@@H]1O (stereo partly drawn) [Compound 4] | 41 ± 3 | 13 ± 3 | 14.0 ± 1.8% |  |  |  |  |  |
| CC[C@@H]1C2C[C@H](OC(=O)C(C)(C)Oc3ccc(C(=O)c4ccc(Cl)cc4)cc3)CC[C@]2(C)C2CC[C@@]3(C)C(CC[C@@H]3[C@H](C)CCOC(=O)C(C)(C)Oc3ccc(C(=O)c4ccc(Cl)cc4)cc3)C2[C@@H]1O (stereo partly drawn) [Compound 6] | 30 ± 17 | 1.7 ± 0.5 |  |  |  |  |  |  |
| CC[C@@H]1C2C[C@H](OC(=O)C(C)(C)Oc3ccc(Cl)cc3)CC[C@]2(C)C2CC[C@@]3(C)C(CC[C@@H]3[C@H](C)CCOC(=O)C(C)(C)Oc3ccc(Cl)cc3)C2[C@@H]1O (stereo partly drawn) [Compound 3] | 101 | 27 ± 10 | 48% and 48.0 ± 5.5% | 17.9 ± 2.6 | 25 ± 0.01 | 1.8 ± 0.35 | 101.0 ± 0.4 |  |
| CC[C@@H]1C2C[C@H](O)CC[C@]2(C)C2CC[C@@]3(C)C(CC[C@@H]3[C@H](C)CCOC(=O)C(C)(C)CCCOc3cc(C)ccc3C)C2[C@@H]1O (stereo partly drawn) [Compound 7] | 14 ± 1.3 | 22 ± 18 | 4.1 ± 0.6% |  |  |  |  |  |
| CC[C@@H]1C2C[C@H](OC(=O)C(C)(C)CCCOc3cc(C)ccc3C)CC[C@]2(C)C2CC[C@@]3(C)C(CC[C@@H]3[C@H](C)CCO)C2[C@@H]1O (stereo partly drawn) [Compound 8] | 29.4 ± 5.1 | 5.3 ± 0.8 |  |  |  |  |  |  |
| CC[C@@H]1C2C[C@H](OC(=O)C(C)(C)CCCOc3cc(C)ccc3C)CC[C@]2(C)C2CC[C@@]3(C)C(CC[C@@H]3[C@H](C)CCOC(=O)C(C)(C)CCCOc3cc(C)ccc3C)C2[C@@H]1O (stereo partly drawn) [Compound 9] | 28.5 ± 0.4 |  | 5.1 ± 1.9% |  |  |  |  |  |
| CCC1C(O)C2C3CCC(C(C)CC(=O)O)C3(C)CCC2C2(C)CCC(O)CC12 (stereo not drawn) [BAR505, reference compound] |  | 40 |  |  | 1.9 ± 0.14 | 3.2 ± 1.1 | 103.6 | 457 |
